Data published in patent publication US20250289814A1, “COMPOUNDS AS PARP1 INHIBITIORS” (NINGBO NEWBAY TECHNOLOGY DEVELOPMENT CO., LTD., priority 2022, published 2025).
Like-named read-outs stand apart in the source and are kept apart here.

Tests used:
DLD1-BRCA2−/− cells = assay: Cell proliferation assay in DLD1-BRCA2−/− cell lines (CellTiter-Glo, 7 days); assay type: cell-based
Protocol: BRCA2 (−/−) cells cultured in RPMI 1640+10% FBS were harvested and diluted to a density of 1×10^4 cells/mL and 2×10^4 cells/mL, respectively. Cells (40 μL/well) were seeded into 384-well cell culture plates. Plates were covered and incubated at 37° C., 5% CO2 overnight prior to the addition of test compounds or vehicle. The plates were then incubated at 37° C., 5% CO2 for 7 days. On day 8, the plates were removed from incubator and equilibrated at room temperature for 15 minutes. CellTiter-Glo (40 μL, at 1:1 to culture medium) is added into each well and the plates were placed at room temperature for 30 min. Luminescence was measured using an Envision plate reader. The resultant data were analysed as follows; where LC is culture medium without cells:
% inhibition values for different test compound concentrations were calculated and fitted to a four parameter logistic plot in order to determine the IC50 value using XLfit

[1] = Caco2 (A-B/B-A) permeability; assay type: in vitro ADME; details: human; for efflux ratio at 120 min, 5 μM: Caco-2, pH 7.4, PappB-A/PappA-B, read-out: Caco2 efflux ratio (ER); for Papp A→B at 120 min, 5 μM: Caco-2, pH 7.4, apical-to-basolateral, read-out: Caco2 A-B apparent permeability (Papp); for Papp A→B at 120 min, 5 μM / Papp B→A at 120 min, 5 μM: HBSS pH 7.4, 120 min, 37° C.; for Papp B→A at 120 min, 5 μM: Caco-2, pH 7.4, basolateral-to-apical, read-out: Caco2 B-A apparent permeability (Papp)
Protocol: The apical-to-basolateral (A-B) and basolateral-to-apical (B-A) transport of 5 μM test compounds in HBSS (10 mM HEPES, pH 7.4) was measured across Caco-2 cell monolayers (cells sourced from American Type Culture Collection, Manassas, Virgina). Duplicate incubations were performed at approximately 37° C. for 120 min, with functionality of the test system confirmed using 5 μM propranolol and digoxin as control compounds. Aliquots (50 μL) from both apical and basolateral wells were transferred into two fresh 96-well plates and quenched with acetonitrile solution containing analytical internal standards. Samples were vortexed mixed, centrifuged and a 100 μL aliquot of the resulting supernatant mixed with an equal volume of ultra-pure water prior to analysis by UPLC-MS/MS. The concentrations of test compound and control compounds in the incubation medium of donor and receiver compartments at the beginning and the end of the incubation period were used to calculate the apparent permeability (Papp) from A-B and B-A directions. The efflux ratio (ER) was expressed as PappB-A/PappA-B. The integrity of the cell monolayers after 2 hours incubation was confirmed using the marker reagent Lucifer yellow.

With `CCc1cc2ncc([C@H](C)N3CC[C@@H](Oc4ccc(C(=O)NC)nc4)C3)cc2[nH]c1=O` (single isomer, unassigned) [Compound 12, 5-(((R)-1-((enantiomer 1 or 2)-1-(7-ethyl-6-oxo-5,6-dihydro-1,5-naphthyridin-3-yl)ethyl)pyrrolidin-3-yl)oxy)-N-methylpicolinamide] the IC50 (DLD1-BRCA2−/− cells; Homo sapiens, DLD-1, 168 h) was 22.5 nM, the efflux ratio at 120 min, 5 μM [1] was 10.3 and the Papp A→B at 120 min, 5 μM [1] was 3.44 ×10⁻⁶ cm/s. The Papp B→A at 120 min, 5 μM [1] was 35.5 ×10⁻⁶ cm/s.

In the case of `CCc1cc2ncc(CN3CC(Oc4ccc(C(=O)NC)nc4)C[C@@H]3C)cc2[nH]c1=O` (single isomer, unassigned) [Compound 22, 5-(((enantiomer 1 or 2, 5S)-1-((7-ethyl-6-oxo-5,6-dihydro-1,5-naphthyridin-3-yl)methyl)-5-methylpyrrolidin-3-yl)oxy)-N-methylpicolinamide], the IC50 (DLD1-BRCA2−/− cells; Homo sapiens, DLD-1, 168 h) is reported as > 1000 nM.

With `CCc1cc2ncc(CN3CC(Oc4ccc(C(=O)NC)nc4)C[C@@H]3C)cc2[nH]c1=O` (single isomer, unassigned) [Compound 23, 5-(((enantiomer 1 or 2, 5S)-1-((7-ethyl-6-oxo-5,6-dihydro-1,5-naphthyridin-3-yl)methyl)-5-methylpyrrolidin-3-yl)oxy)-N-methylpicolinamide] the IC50 (DLD1-BRCA2−/− cells) was > 1000 nM.

`CCc1cc2ncc(CN3CC[C@@H](Cc4ccc(C(=O)NC)nc4)C3)cc2[nH]c1=O` (single isomer, unassigned) [Compound 25, (enantiomer 1 or 2)-5-((1-((7-ethyl-6-oxo-5,6-dihydro-1,5-naphthyridin-3-yl)methyl)pyrrolidin-3-yl)methyl)-N-methylpicolinamide] gave an IC50 (DLD1-BRCA2−/− cells; Homo sapiens, DLD-1, 168 h) of 300 nM.

Molecule `CCc1cc2ncc(CN3CC[C@@H](Cc4ccc(C(=O)NC)nc4)C3)cc2[nH]c1=O` (single isomer, unassigned) [Compound 26, (enantiomer 1 or 2)-5-((1-((7-ethyl-6-oxo-5,6-dihydro-1,5-naphthyridin-3-yl)methyl)pyrrolidin-3-yl)methyl)-N-methylpicolinamide] has an IC50 (DLD1-BRCA2−/− cells) of 192 nM.

With `CCc1cc2ncc(CN3CCC[C@@H](Oc4ccc(C(=O)NC)nc4)C3)cc2[nH]c1=O` (single isomer, unassigned) [Compound 32, (enantiomer 1 or 2)-5-((1-((7-ethyl-6-oxo-5,6-dihydro-1,5-naphthyridin-3-yl)methyl)piperidin-3-yl)oxy)-N-methylpicolinamide] the IC50 (DLD1-BRCA2−/− cells; Homo sapiens, DLD-1, 168 h) was > 1000 nM.

With `CCc1cc2ncc(CN3CCC[C@@H](Oc4ccc(C(=O)NC)nc4)C3)cc2[nH]c1=O` (single isomer, unassigned) [Compound 33, (enantiomer 1 or 2)-5-((1-((7-ethyl-6-oxo-5,6-dihydro-1,5-naphthyridin-3-yl)methyl)piperidin-3-yl)oxy)-N-methylpicolinamide] the IC50 (DLD1-BRCA2−/− cells) was > 1000 nM.

For `CCc1cc2ncc(CN3CC[C@@H](N(C)c4ccc(C(=O)NC)nc4)C3)cc2[nH]c1=O` (single isomer, unassigned; enantiomer 1) [Compound 16, (enantiomer 1)-5-((1-((7-ethyl-6-oxo-5,6-dihydro-1,5-naphthyridin-3-yl)methyl)pyrrolidin-3-yl)(methyl)amino)-N-methylpicolinamide], the IC50 (DLD1-BRCA2−/− cells) was > 1000 nM.

`CCc1cc2ncc(CN3CC[C@@H](N(C)c4ccc(C(=O)NC)nc4)C3)cc2[nH]c1=O` (single isomer, unassigned; enantiomer 2) [Compound 17, (enantiomer 2)-5-((1-((7-ethyl-6-oxo-5,6-dihydro-1,5-naphthyridin-3-yl)methyl)pyrrolidin-3-yl)(methyl)amino)-N-methylpicolinamide] showed an IC50 (DLD1-BRCA2−/− cells) of 195 nM, an efflux ratio at 120 min, 5 μM [1] of 9.14 and a Papp A→B at 120 min, 5 μM [1] of 3.64 ×10⁻⁶ cm/s. It also gave a Papp B→A at 120 min, 5 μM [1] of 33.3 ×10⁻⁶ cm/s.

With `CCc1cc2ncc(CN3CCC(Oc4ccc(C(=O)NC)nc4)C3)cc2[nH]c1=O` (centres unmarked) [Compound 9, 5-((1-((7-ethyl-6-oxo-5,6-dihydro-1,5-naphthyridin-3-yl)methyl)pyrrolidin-3-yl)oxy)-N-methylpicolinamide] the IC50 (DLD1-BRCA2−/− cells; Homo sapiens, DLD-1, 168 h) was 14.3 nM, the efflux ratio at 120 min, 5 μM [1] was 10.3 and the Papp A→B at 120 min, 5 μM [1] was 3.55 ×10⁻⁶ cm/s. For the same molecule, the Papp B→A at 120 min, 5 μM [1] was 36.5 ×10⁻⁶ cm/s.

In the case of `CCc1cc2ncc(CN3CC(Oc4ccc(C(=O)NC)nc4)C3C)cc2[nH]c1=O` (centres unmarked) [Compound 18, 5-((1-((7-ethyl-6-oxo-5,6-dihydro-1,5-naphthyridin-3-yl)methyl)-2-methylazetidin-3-yl)oxy)-N-methylpicolinamide], the IC50 (DLD1-BRCA2−/− cells; Homo sapiens, DLD-1, 168 h) is reported as > 1000 nM.

With `CCc1cc2ncc(CN3CC[C@@H](Oc4cnc(C(=O)NC)c(F)c4)C3)cc2[nH]c1=O` [Compound 27, (R)-5-((1-((7-ethyl-6-oxo-5,6-dihydro-1,5-naphthyridin-3-yl)methyl)pyrrolidin-3-yl)oxy)-3-fluoro-N-methylpicolinamide] the IC50 (DLD1-BRCA2−/− cells; Homo sapiens, DLD-1, 168 h) was 356 nM.

With `CCc1cc2ncc(CN3CCC(N(C)c4ccc(C(=O)NC)nc4)CC3)cc2[nH]c1=O` [Compound 31, 5-((1-((7-ethyl-6-oxo-5,6-dihydro-1,5-naphthyridin-3-yl)methyl)piperidin-4-yl)(methyl)amino)-N-methylpicolinamide] the IC50 (DLD1-BRCA2−/− cells; Homo sapiens, DLD-1, 168 h) was > 1000 nM, the efflux ratio at 120 min, 5 μM [1] was 8.81 and the Papp A→B at 120 min, 5 μM [1] was 3.5 ×10⁻⁶ cm/s. It also gave a Papp B→A at 120 min, 5 μM [1] of 30.9 ×10⁻⁶ cm/s.

For `CCc1cc2ncc(CN3CCCN(c4ccc(C(=O)NC)nc4)CC3)cc2[nH]c1=O` [Compound 34, 5-(4-((7-ethyl-6-oxo-5,6-dihydro-1,5-naphthyridin-3-yl)methyl)-1,4-diazepan-1-yl)-N-methylpicolinamide], the IC50 (DLD1-BRCA2−/− cells; Homo sapiens, DLD-1, 168 h) was > 1000 nM.

For `CNC(=O)c1ccc(N2CCCN(Cc3cnc4cc(C)c(=O)[nH]c4c3)CC2)cn1` [Compound 35, N-methyl-5-(4-((7-methyl-6-oxo-5,6-dihydro-1,5-naphthyridin-3-yl)methyl)-1,4-diazepan-1-yl) picolinamide], the IC50 (DLD1-BRCA2−/− cells; Homo sapiens, DLD-1, 168 h) was > 1000 nM.

In the case of `CCc1cc2ncc(CN3C4CC3CN(c3ccc(C(=O)NC)nc3)C4)cc2[nH]c1=O` [Compound 36, 5-(6-((7-ethyl-6-oxo-5,6-dihydro-1,5-naphthyridin-3-yl)methyl)-3,6-diazabicyclo [3.1.1]heptan-3-yl)-N-methylpicolinamide], the IC50 (DLD1-BRCA2−/− cells; Homo sapiens, DLD-1, 168 h) is reported as > 1000 nM.

For `CCc1cc2ncc(CN3C4CCC3CN(c3ccc(C(=O)NC)nc3)C4)cc2[nH]c1=O` [Compound 38, 5-(8-((7-ethyl-6-oxo-5,6-dihydro-1,5-naphthyridin-3-yl)methyl)-3,8-diazabicyclo [3.2.1]octan-3-yl)-N-methylpicolinamide], the IC50 (DLD1-BRCA2−/− cells; Homo sapiens, DLD-1, 168 h) was > 1000 nM.

In the case of `CCc1cc2ncc(CN3CC4CCC(C3)N4c3ccc(C(=O)NC)nc3)cc2[nH]c1=O` [Compound 39, 5-(3-((7-ethyl-6-oxo-5,6-dihydro-1,5-naphthyridin-3-yl)methyl)-3,8-diazabicyclo [3.2.1]octan-8-yl)-N-methylpicolinamide], the IC50 (DLD1-BRCA2−/− cells; Homo sapiens, DLD-1, 168 h) is reported as > 1000 nM.

For `CNC(=O)c1ccc(N2CC3CN(Cc4cnc5cc(C)c(=O)[nH]c5c4)CC3C2)cn1` (centres unmarked) [Compound 41, N-methyl-5-(5-((7-methyl-6-oxo-5,6-dihydro-1,5-naphthyridin-3-yl)methyl)hexahydropyrrolo[3,4-c]pyrrol-2(1H)-yl)picolinamide], the IC50 (DLD1-BRCA2−/− cells; Homo sapiens, DLD-1, 168 h) was > 1000 nM.

For `CNC(=O)c1ccc(O[C@@H]2CCN(Cc3cnc4cc(C)c(=O)[nH]c4c3)C2)cn1` [Compound 59, (R)-N-methyl-5-((1-((7-methyl-6-oxo-5,6-dihydro-1,5-naphthyridin-3-yl)methyl)pyrrolidin-3-yl)oxy)picolinamide], the IC50 (DLD1-BRCA2−/− cells; Homo sapiens, DLD-1, 168 h) was 215 nM.
